Results as given in patent USRE38132E1, “Phenylpyrrolidines, phenylimidazolidines,3-phenyl-1,3-oxizolidines and 3-phenyl-1,3-thiazolidines and their use in the treatment of inflammatory disease” (Boehringer Ingelheim Pharmaceuticals, Inc., priority 1997, dated 2003).
Like-named read-outs stand apart in the source and are kept apart here.

Assays:
[1] = target: T1, interaction of ICAM-1 with the Leukointegrin CD18/CD11a (LFA-1) (Homo sapiens, UniProt P05107+P20701); assay: Assay to determine inhibition of LFA-1 binding to ICAM-1 (immunopurified LFA-1 on plate-bound sICAM-1, ELISA readout)
T1 construct: endogenous in cells; sICAM-1: made in house, secreted from transfected CHO DUX cells

[2] = test system: cell bound form of LFA-1 (CD18, CD11a) with ICAM-1, SKW3 cells; assay: Inhibition of SKW3 cell binding to ICAM-1 (PMA-stimulated); format: cell-based, human; settings: Homo sapiens, read-out: Assay to Detect SKW3 Cells Binding to ICAM IC50
Text: (§1) Assay to Determine Inhibition of SKW3 cell binding to ICAM-1 vs. Binding to Fibronectin
(§2) This assay is used to test the selective ability of a test compound to antagonize the interaction of a cell bound form of LFA-1 with ICAM-1. The assay uses a human T cell line, SKW3 cells which express CD18, CD11a and other integrins not related to CD18, CD11a and which can be “activated” by phorbol esters. Phorbol esters enhance the affinity of CD18, CD11a for ICAM-1.
(§3) This same lymphocyte line, SKW3, also adheres to fibronectin in the presence of phorbol esters. This adhesion is mediated by membrane proteins independent of the LFA-1/ICAM-1 interaction. The SKW3 cells express another integrin, VLA4, which is the receptor for fibronectin. Therefore, as a preliminary indication of the selectivity of a test compounds to interfere with Leukointegrin/CAM interactions but not other integrin-ligand binding events, a compound can be tested for its ability to antagonize cell bound fibronectin receptor in its interaction with purified fibronectin. Compounds that inhibit this fibronectin adhesion are not specific antagonists of the CD18, CD11a/ICAM-1 binding.
(§4) Description of Assay Protocol:
(§5) Ninety-six well plates are coated with either sICAM-1(40 μg/mL) or fibronectin (100 μg/mL) in Diluting buffer for 1 h at room temperature. Added to the wells are 100 μL of the appropriately diluted test compound or 100 μL of RPMI with 15% fetal bovine serum as a control. SKW3 cells, which express CD18, CD11a and VLA4 (Dustin, M.; et al., J. Exp. Med. 1987, 165, 672-692) are washed and suspended to a concentration of 10^6 cells/mL in RPMI with 15% fetal bovine serum. Immediately before adding the cells to the wells, cells are stimulated with the phorbol ester 12-myristate 13-acetate (PMA) for a final concentration of […]. 100 μL of cells are then added to the wells resulting in a final concentration of […]. The plates are incubated for 2 h at 37° C. Unbound or loosely bound cells are gently washed away with RPMI.
(§6) Data are reported as the concentration or concentration range (in μM) at which 50% of binding is inhibited.

[3] = test system: cell bound fibronectin receptor (VLA4) with fibronectin, SKW3 cells; assay: Inhibition of SKW3 cell binding to fibronectin (selectivity counter-assay); format: cell-based, human; settings: for IC50: Homo sapiens, read-out: Assay to Detect SKW3 Cells Binding to FIBRONECTIN IC50
Text: as §1, §2, §3, §4, §5, §6

[4] = test system: LFA-1 dependent aggregation of JY cells; assay: JY cell homotypic aggregation assay (PMA-stimulated); format: cell-based, human; settings: Homo sapiens
Text: This aggregation can be enhanced by the addition of phorbol esters. […] Thus, the extent of LFA-1-dependent binding may be determined by assessing the extent of spontaneous or phorbol ester-dependent aggregate formation.
An agent which interferes with LFA-1 -dependent aggregation can be identified through the use of an assay capable of determining whether the agent interferes with either spontaneous, or phorbol ester-dependent aggregation of Epstein-Barr virus transformed cells. It is preferable to employ cells of the JY cell line (Terhost, L; et aL, Proc. Natl. Acad. Sci. USA, 1976, 73, 910) for the homotypic aggregation assay. This assay, capable of measuring LFA-1 dependent aggregation, may be employed to identify agents which act as antagonists to the LFA-1 dependent aggregation. Such agents may act by impairing the ability of either LFA-1 or ICAM-1 to mediate aggregation. Thus, agents may be examined to directly determine if they are antagonists of LFA-1 aggregation.
as §4
JY cells are cultured in RPMI 1640 culture medium supplemented with 10% fetal calf serum and 50 μg/mL gentamycin. The cells are cultured at 37° C. in an atmosphere of 5% CO2 at a relative humidity of 95%. JY cells used in this assay are washed two times with RPMI 1640 medium containing 5 mM HEPES buffer and resuspended to a concentration of 2·10^6 cells/mL. Added to flat-bottomed, 96-well microtiter plates are 50 μL of test compound diluted in complete medium, 50 μL of complete medium with or without purified monoclonal antibodies (negative and positive controls for inhibition, respectively), 50 μL of complete medium containing 200 ng/mL of the phorbol ester phorbol myristate acetate (PMA) and 100 μL of cells at a concentration of 2·10^6 cells/mL in complete medium. This yields a final concentration of […] PMA and 2·10^5 cells/well. Cells are allowed to settle spontaneously, and the degree of aggregation is scored at various time points. […] This procedure has been described by Rothlein, R. R.; et al., J. Exp. Med. 1986, 163, 1132-1149. This paper also reported that antibody to LFA-1 is capable of inhibiting the formation of aggregates.
as §6

[5] = values marked e approximated from incomplete dose-response curve
[6] = SKW3, values marked c: no inhibition observed up to highest dose
[7] = values marked c: no inhibition observed up to highest dose
[8] = No inh = no inhibition observed up to highest dose, exact quantification not always possible due to intrinsic toxicity

T1 sequence (P20701 26-1170): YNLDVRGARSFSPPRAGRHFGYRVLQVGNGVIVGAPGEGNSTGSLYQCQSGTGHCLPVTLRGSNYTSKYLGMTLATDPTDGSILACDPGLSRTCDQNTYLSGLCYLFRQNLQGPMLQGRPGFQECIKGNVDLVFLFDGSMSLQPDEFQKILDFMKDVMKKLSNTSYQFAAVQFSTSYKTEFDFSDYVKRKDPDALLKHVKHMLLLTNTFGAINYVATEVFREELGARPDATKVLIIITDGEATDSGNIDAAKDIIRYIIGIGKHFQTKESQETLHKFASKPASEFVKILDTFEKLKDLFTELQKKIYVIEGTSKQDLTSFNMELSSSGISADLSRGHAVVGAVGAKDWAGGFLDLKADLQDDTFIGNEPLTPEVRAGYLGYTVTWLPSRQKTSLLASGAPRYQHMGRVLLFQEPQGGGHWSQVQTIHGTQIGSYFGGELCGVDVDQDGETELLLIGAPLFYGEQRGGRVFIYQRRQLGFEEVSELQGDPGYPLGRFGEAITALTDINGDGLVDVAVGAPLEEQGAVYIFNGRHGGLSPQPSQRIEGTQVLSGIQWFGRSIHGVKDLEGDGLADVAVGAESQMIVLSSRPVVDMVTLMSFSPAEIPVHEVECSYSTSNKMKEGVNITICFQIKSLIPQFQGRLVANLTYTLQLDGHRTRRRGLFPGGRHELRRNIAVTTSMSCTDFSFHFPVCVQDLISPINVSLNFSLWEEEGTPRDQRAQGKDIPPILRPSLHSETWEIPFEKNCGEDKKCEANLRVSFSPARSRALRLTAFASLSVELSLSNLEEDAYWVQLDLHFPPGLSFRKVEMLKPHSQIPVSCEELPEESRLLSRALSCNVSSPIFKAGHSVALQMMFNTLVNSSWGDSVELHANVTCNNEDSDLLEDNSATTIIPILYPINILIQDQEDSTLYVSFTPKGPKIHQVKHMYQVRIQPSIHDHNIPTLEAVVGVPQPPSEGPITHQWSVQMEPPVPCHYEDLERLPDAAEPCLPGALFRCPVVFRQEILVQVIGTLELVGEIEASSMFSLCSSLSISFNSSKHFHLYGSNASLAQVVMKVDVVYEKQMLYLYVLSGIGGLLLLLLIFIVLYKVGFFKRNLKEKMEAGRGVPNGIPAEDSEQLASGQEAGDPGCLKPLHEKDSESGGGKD
T1 sequence (P05107 23-769): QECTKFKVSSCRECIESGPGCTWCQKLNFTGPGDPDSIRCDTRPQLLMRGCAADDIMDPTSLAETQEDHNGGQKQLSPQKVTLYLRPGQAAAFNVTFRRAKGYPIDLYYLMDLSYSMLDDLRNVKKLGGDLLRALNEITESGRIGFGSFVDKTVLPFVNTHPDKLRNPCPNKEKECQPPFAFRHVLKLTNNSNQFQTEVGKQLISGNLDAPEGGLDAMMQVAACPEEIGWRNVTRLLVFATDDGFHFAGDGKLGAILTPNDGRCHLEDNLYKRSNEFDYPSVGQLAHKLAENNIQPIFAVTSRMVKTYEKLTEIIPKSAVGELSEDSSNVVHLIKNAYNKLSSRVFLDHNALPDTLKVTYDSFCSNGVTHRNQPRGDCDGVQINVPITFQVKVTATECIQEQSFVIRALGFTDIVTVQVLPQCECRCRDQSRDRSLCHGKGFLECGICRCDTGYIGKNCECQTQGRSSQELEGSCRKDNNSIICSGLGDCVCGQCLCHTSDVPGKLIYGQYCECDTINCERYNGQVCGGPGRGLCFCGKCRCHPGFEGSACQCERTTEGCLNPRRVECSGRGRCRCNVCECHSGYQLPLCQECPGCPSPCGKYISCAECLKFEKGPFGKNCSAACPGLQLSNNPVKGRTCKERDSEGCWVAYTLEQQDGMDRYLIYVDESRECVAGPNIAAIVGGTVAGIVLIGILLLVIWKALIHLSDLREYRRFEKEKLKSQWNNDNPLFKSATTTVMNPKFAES

| Structure (SMILES) | Kd [1, 5] [nM] | IC50 [2, 6] [nM] | IC50 [3, 6] [µM] | IC50 [4] [nM] | Cellular Toxicity Assay MTT LD50 (SKW3 cells) [µM] | Kd [1] [nM] | IC50 ([2]; SKW3) [nM] | IC50 ([3]; SKW3, No inh = no inhibition observed up to highest dose, exact quantification not always possible due to intrinsic toxicity) [µM] | Assay to Detect SKW3 Cells Binding to FIBRONECTIN IC50 [3, 7] | Assay to Detect SKW3 Cells Binding to FIBRONECTIN IC50 [3, 8] |
| --- | --- | --- | --- | --- | --- | --- | --- | --- | --- | --- |
| CN1C(=O)N(c2cc(Cl)cc(Cl)c2)C(=O)[C@@H]1Cc1ccccc1 [Example 87] | 2000 | 50000 to 100000 | > 100 | 50000 | >500 | – | – | – | – | – |
| CC(C)N1C(=O)N(c2cc(Cl)cc(Cl)c2)C(=O)[C@@]1(C)Cc1ccc(Br)cc1 [Example 273] | – | – | – | 2000 | 150 to 300 | 190 | 38000 | > 75 | – | – |
| CCCN1C(=O)N(c2cc(Cl)cc(Cl)c2)C(=O)C1(C)Cc1ccc(Br)cc1 (stereo not shown) [Example 137] | 40 | 1000 to 3000 | – | 400 | 200 to 400 | – | – | – | No inh^c | – |
| C[C@@]1(Cc2ccc(Br)cc2)C(=O)N(c2cc(Cl)cc(Cl)c2)C(=O)N1CCCCC#N [Example 256] | – | – | – | 400 | 150 to 300 | 120 | 800 to 2000 | – | – | No inh^c |
| CC1(Cc2ccc(Br)cc2)NC(=O)N(c2cc(Cl)cc(Cl)c2)C1=S (stereo not shown) [Example 81] | 80 | 1000 to 3000 | – | 6300 | 25 to 50 | – | – | – | No inh^c | – |
| C[C@@]1(Cc2ccc(Br)cc2)C(=O)N(c2cc(Cl)cc(Cl)c2)C(=O)N1Cc1ccccn1 [Example 110] | 150 | 25000 | – | 9000 | 200 to 400 | – | – | – | No inh^c | – |
| C[C@@]1(Cc2ccc(Br)cc2)C(=O)N(c2cc(Cl)cc(Cl)c2)C(=O)N1CCCCS(=O)(=O)O [Example 250] | – | – | – | 100 | 100 to 200 | 40 | < 1000 | – | – | No inh^c |
| CN1C(=O)N(c2cc(C(F)(F)F)cc(C(F)(F)F)c2)C(=O)[C@@]1(C)Cc1ccc(Br)cc1 [Example 100] | 190 | 8000 to 15000 | > 60 | 700 | >400 | – | – | – | – | – |
| C[C@@]1(Cc2ccc(Br)cc2)C(=O)N(c2cc(Cl)cc(Cl)c2)C(=O)N1Cc1ccc(C(=O)O)cc1 [Example 228] | – | – | – | 1600 | 50 to 100 | 410 | 12000 to 25000 | – | – | No inh^c |
| C[C@@]1(Cc2ccc(Br)cc2)C(=O)N(c2cc(Cl)cc(Cl)c2)C(=O)N1CCCCNC(=N)N [Example 263] | – | – | – | 800 | 20 to 40 | 90 | 800 to 1600 | – | – | No inh^c |
| C[C@@]1(Cc2ccc(Br)cc2)C(=O)N(c2cc(Cl)cc(Cl)c2)C(=O)N1Cc1cccc(O)c1 [Example 245] | – | – | – | 700 | 25 to 50 | 210 | 1000 to 3000 | – | – | No inh^c |
